The target in experiment [1] is ATP-dependent RNA helicase DDX3X (Homo sapiens) (UniProt O00571). The experiment is described as follows: Inhibition of human recombinant full length DDX3X helicase activity expressed in Escherichia coli using dsRNA as substrate measured after 40 mins by FRET assay.
A further experiment concerns West Nile virus. The experiment is described as follows: Antiviral activity against WNV infected in human Huh-7 cells preincubated with cells for 1 hr and measured after 4 days by plaque reduction assay. It counts as functional, organism-based. A general note: In a plaque reduction assay, fewer plaques than in the control indicate reduced infectivity or spread.
The subject of experiment [2] is Huh-7. The experiment is described as follows: Cytotoxicity against human Huh-7 cells incubated for 3 days by MTT assay. Type of experiment: functional. The conditions noted are these: Huh-7, 72 h, time 3 day.
The test system of experiment [3] is Huh-7. The experiment is described as follows: Cytotoxicity against human Huh-7 cells incubated for 72 hrs by Cell Titer-Glo luminescence assay. Type of experiment: functional.
The subject of the next experiment is dengue virus type 2. Description: Antiviral activity against DENV2 New Guinea C strain infected in human Huh-7 cells measured after 72 hrs by immunodetection assay. It counts as functional, organism-based. The conditions noted are these: Huh-7, 72 h.
The target in experiment [4] is T1, ATP-dependent RNA helicase DDX1 (Homo sapiens) (UniProt Q92499).
T1 sequence (whole entry): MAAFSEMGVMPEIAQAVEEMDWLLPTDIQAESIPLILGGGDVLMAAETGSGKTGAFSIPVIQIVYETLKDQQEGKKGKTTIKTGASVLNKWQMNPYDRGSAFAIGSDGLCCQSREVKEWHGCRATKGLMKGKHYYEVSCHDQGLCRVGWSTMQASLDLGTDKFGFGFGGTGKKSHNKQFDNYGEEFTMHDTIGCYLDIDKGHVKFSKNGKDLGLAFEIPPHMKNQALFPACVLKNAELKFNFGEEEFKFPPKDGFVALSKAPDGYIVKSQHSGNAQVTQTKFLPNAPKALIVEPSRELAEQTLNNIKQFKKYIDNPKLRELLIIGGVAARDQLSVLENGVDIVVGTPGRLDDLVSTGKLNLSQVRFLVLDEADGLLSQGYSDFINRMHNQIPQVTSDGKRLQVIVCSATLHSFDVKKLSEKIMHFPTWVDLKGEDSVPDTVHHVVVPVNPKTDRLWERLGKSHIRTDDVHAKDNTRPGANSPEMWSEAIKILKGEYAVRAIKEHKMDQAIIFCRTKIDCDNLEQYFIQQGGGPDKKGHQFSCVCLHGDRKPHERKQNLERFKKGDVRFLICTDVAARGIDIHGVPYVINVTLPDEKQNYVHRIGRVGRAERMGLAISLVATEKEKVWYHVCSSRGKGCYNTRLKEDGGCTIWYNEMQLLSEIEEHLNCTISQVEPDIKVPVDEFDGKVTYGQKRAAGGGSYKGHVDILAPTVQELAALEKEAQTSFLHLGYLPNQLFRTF
Description: Inhibition of human DDX1 helicase activity.

The test system of a further experiment is Hepacivirus hominis. The experiment is described as follows: Inhibition of Hepatitis C virus NSP 3 helicase activity.
The next experiment deals with Arabidopsis thaliana. Description: Inhibition of Arabidopsis thaliana STRS2 helicase activity.
The species entered for experiment [5] is Homo sapiens. Description: Inhibition of human recombinant full length DDX3X R262A mutant helicase activity using dsRNA as substrate measured after 40 mins by FRET assay.
The species entered for experiment [6] is Homo sapiens. The experiment is described as follows: Inhibition of human recombinant full length DDX3X E256A mutant helicase activity using dsRNA as substrate measured after 40 mins by FRET assay.

The structures appear in SMILES notation. The source made the active and inactive calls. The rule behind the calls is not given here.

The record followed here is ChEMBL document CHEMBL5230101, “Unique Domain for a Unique Target: Selective Inhibitors of Host Cell DDX3X to Fight Emerging Viruses” (J Med Chem, 2020).

Chain of ATP-dependent RNA helicase DDX3X (Homo sapiens) (O00571 2-662 limits assumed): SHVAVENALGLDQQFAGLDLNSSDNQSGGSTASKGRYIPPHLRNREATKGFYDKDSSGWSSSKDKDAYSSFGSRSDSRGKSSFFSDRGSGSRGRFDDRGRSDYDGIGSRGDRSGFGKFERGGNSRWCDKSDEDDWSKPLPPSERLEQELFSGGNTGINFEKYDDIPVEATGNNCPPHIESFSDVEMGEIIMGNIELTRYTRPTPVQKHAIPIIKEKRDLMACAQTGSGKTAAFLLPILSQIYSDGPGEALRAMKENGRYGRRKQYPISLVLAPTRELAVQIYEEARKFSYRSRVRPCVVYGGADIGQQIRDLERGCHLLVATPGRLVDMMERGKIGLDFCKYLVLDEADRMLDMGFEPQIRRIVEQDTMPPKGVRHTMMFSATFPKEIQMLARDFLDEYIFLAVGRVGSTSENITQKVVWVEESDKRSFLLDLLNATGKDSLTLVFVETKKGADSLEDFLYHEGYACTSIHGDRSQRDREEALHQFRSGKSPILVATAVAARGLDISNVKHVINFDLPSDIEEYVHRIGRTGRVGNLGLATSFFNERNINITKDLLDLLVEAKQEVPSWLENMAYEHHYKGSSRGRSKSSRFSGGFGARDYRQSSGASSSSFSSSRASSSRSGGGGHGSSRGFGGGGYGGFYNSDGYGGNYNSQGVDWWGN

Turning to `CNC(=O)N1c2ccccc2CCc2ccccc21`, the ID50 entry in experiment [1] is “inactive”.

For `CCOC(=O)Nc1ccc2c(c1)N(C(=O)CCN(CC)CC)c1ccccc1CC2`, the ID50 entry in [1] was “inactive”.

For `CC(=O)N1c2ccccc2CCc2cc([N+](=O)[O-])ccc21`, the ID50 entry in [1] is “inactive”.

Regarding `NCC(O)CN(c1ccccc1)c1ccccc1` (racemic) [listing 1 of 2 here], the IC50 (as a rule, the concentration needed to halve the response being measured) in the experiment on West Nile virus is 2.3 µM; in the experiment with dengue virus type 2 it was 7.9 µM. Also, the results for the CC50 with Huh-7 [2] and in the experiment on Huh-7 [3] were above 100 µM and 100 µM, respectively.

For `NCC(O)CN(c1ccccc1)c1ccccc1` (stereo not drawn), the ID50 in experiment [1] came out at 0.7 µM.

With `Nc1ccc(Nc2nc3ccccc3[nH]2)cc1`, in experiment [1], the ID50 entry was “inactive”.

For `OC(C#CCN1CCCCC1)(c1ccccc1)c1ccccc1`, the ID50 entry in experiment [1] was “inactive”.

For the molecule `COc1ccc(CN)cc1Cn1cccn1`, the ID50 entry in experiment [1] was “inactive”.

Take `NC(=O)c1ncn([C@@H]2O[C@H](CO)[C@@H](O)[C@H]2O)n1` [RIBAVIRIN]: in the experiment with West Nile virus, the IC50 was 91.5 µM. Besides, the CC50 in the experiment with Huh-7 [2] and in the experiment with Huh-7 [3] was above 100 µM throughout.

Turning to `CC1CC(C)CN(S(=O)(=O)c2ccc(N)cc2)C1` (stereo not drawn), in experiment [1], the ID50 entry was “inactive”.

On to `NC[C@H](O)CN(c1ccccc1)c1ccccc1`, for which the IC50 in the experiment on West Nile virus turned out to be 0.9 µM; with dengue virus type 2 it was 12.6 µM. Further, the ID50 in [1] was determined as 0.007 µM. The CC50 – broadly, the concentration at which the toxic effect on the cells reaches its halfway point – with Huh-7 [2] is above 100 µM; in the experiment on Huh-7 [3], 120 µM.

On to `NCC(O)CN(c1ccccc1)c1ccccc1` (racemic) [listing 2 of 2 here], for which the ID50 was 18 µM in [4]; above 100 µM with Hepacivirus hominis; above 100 µM in the experiment on Arabidopsis thaliana; 0.001 µM in the experiment filed under Homo sapiens [5]; 0.002 µM in experiment [1]; 73 µM in the experiment listed under Homo sapiens [6].

`Nc1ccc(S(=O)(=O)c2ccccc2)cc1`: the ID50 in [1] amounted to 200 µM.

As for `CC(N)Cc1cn(Cc2ccccc2)c2ccccc12` (stereo not drawn), the ID50 entry in experiment [1] is “inactive”.

As to `NC[C@@H](O)CN(c1ccccc1)c1ccccc1`, the ID50 was 58 µM in experiment [4]; above 100 µM with Hepacivirus hominis; above 100 µM in the experiment with Arabidopsis thaliana; 0.004 µM in the experiment listed under Homo sapiens [5]; 0.006 µM in experiment [1]; 0.3 µM in the experiment listed under Homo sapiens [6]. In addition, the IC50 was found to be 0.88 µM in the experiment with West Nile virus and 6.3 µM with dengue virus type 2. The values for the CC50 with Huh-7 [2] and in the experiment on Huh-7 [3] were above 100 µM and 79 µM, respectively.
